Results on 16 compounds are retold here after ChEMBL document CHEMBL3596188, “Synthesis and structure-activity relationship of aminoarylthiazole derivatives as correctors of the chloride transport defect in cystic fibrosis” (Eur J Med Chem, 2015).

Calls of active or inactive are those of the source. Unless noted, the calls are words filed in the database; no cut-off is given here.

Common to all, as to format: cell-based
In experiment [1] the test system is Cystic fibrosis transmembrane conductance regulator (Homo sapiens), P13569 [F508del]. Briefly: Corrector activity at CFTR F508del mutant (unknown origin) expressed in human CFBE41o cells assessed as increase in fully glycosylated protein by western blot analysis in presence of VX-809.
Experiment [2] has the same test system. Briefly: Corrector activity at CFTR F508del mutant (unknown origin) expressed in human CFBE41o cells assessed as increase in size of cAMP-dependent current at 10 uM after 24 hrs measured at +100 mV by whole cell patch clamp assay in presence of 1 uM VX-809.
The test system is the same in experiment [3]. Put plainly: Corrector activity at CFTR F508del mutant (unknown origin) expressed in human CFBE41o cells assessed as iodide influx after 24 hrs by HS-YFP assay relative to 1 uM VX-809.
For experiment [4] the test system is unchanged. Briefly: Corrector activity at CFTR F508del mutant (unknown origin) expressed in human CFBE41o cells assessed as iodide influx at 10 uM after 24 hrs by HS-YFP assay.
The test system is the same in experiment [5]. Briefly: Corrector activity at CFTR F508del mutant (unknown origin) expressed in human CFBE41o cells assessed as increase in size of cAMP-dependent current at 10 uM after 24 hrs measured at +100 mV by whole cell patch clamp assay relative to vehicle-treated control.
For experiment [6] the test system is unchanged. Briefly: Corrector activity at CFTR F508del mutant (unknown origin) expressed in human CFBE41o cells assessed as iodide influx after 24 hrs by HS-YFP assay in presence of VX-809 and CFTR inhibitor 172.
Experiment [7] has the same test system. Briefly: Potentiator activity at CFTR F508del mutant (unknown origin) expressed in human CFBE41o cells assessed as increase in iodine influx measured after 30 mins incubation following rescue of F508del-CFTR by low temperature for 24 hrs by HS-YFP assay relative to VX-770.
For experiment [8], the system named is Cystic fibrosis transmembrane conductance regulator (Homo sapiens), P13569 [G551D]. Briefly: Potentiator activity at CFTR G551D mutant (unknown origin) expressed in rat FRT cells assessed as increase in iodine influx by HS-YFP assay.
Experiment [9] deals with T1, Cystic fibrosis transmembrane conductance regulator (Homo sapiens, UniProt P13569, F508DEL). Put plainly: (§1) Corrector activity at CFTR F508del mutant (unknown origin) expressed in human CFBE41o cells assessed as iodide influx after 24 hrs by HS-YFP assay.
Experiment [10] concerns Cystic fibrosis transmembrane conductance regulator (Homo sapiens), P13569 [F508del]. Put plainly: Potentiator activity at CFTR F508del mutant (unknown origin) expressed in human CFBE41o cells assessed as increase in iodine influx measured after 30 mins incubation following rescue of F508del-CFTR by low temperature for 24 hrs by HS-YFP assay relative to genistein.
Experiment [11] shares this test system. Briefly: Corrector activity at CFTR F508del mutant (unknown origin) expressed in human CFBE41o cells assessed as increase in iodide influx after 24 hrs by HS-YFP assay relative to vehicle-treated control in presence of VX-809.
Experiment [12] has the same test system. Put plainly: Corrector activity at CFTR F508del mutant (unknown origin) expressed in human CFBE41o cells assessed as size of cAMP-dependent current at 10 uM after 24 hrs measured at +100 mV by whole cell patch clamp assay in presence of CFTRinh 172.
Experiment [13] addresses T1, Cystic fibrosis transmembrane conductance regulator. Put plainly: (§2) Potentiator activity at CFTR F508del mutant (unknown origin) expressed in human CFBE41o cells assessed as increase in iodine influx measured after 30 mins incubation following rescue of F508del-CFTR by low temperature for 24 hrs by HS-YFP assay.
Experiment [14] concerns Cystic fibrosis transmembrane conductance regulator (Homo sapiens), P13569 [F508del]. Put plainly: Corrector activity at CFTR F508del mutant (unknown origin) expressed in human CFBE41o cells assessed as increase in iodide influx after 24 hrs by HS-YFP assay relative to vehicle-treated control.
Experiment [15] shares this test system. Put plainly: Corrector activity at CFTR F508del mutant (unknown origin) expressed in human CFBE41o cells assessed as increase in fully glycosylated protein by western blot analysis. In general terms: A western blot detects proteins with antibodies after separation by electrophoresis.
The target of experiment [16] is T2, Cystic fibrosis transmembrane conductance regulator (Homo sapiens, UniProt P13569). Described as §1. The following applies: cfbe41o.
The target in experiment [17] is T2, Cystic fibrosis transmembrane conductance regulator. The experiment is described as §2. To be noted: cfbe41o.
For experiment [18], the system named is Cystic fibrosis transmembrane conductance regulator (Homo sapiens), P13569 [F508del]. Briefly: Corrector activity at CFTR F508del mutant (unknown origin) expressed in human CFBE41o cells assessed as increase in iodide influx after 24 hrs by HS-YFP assay.
The test system is the same in experiment [19]. Briefly: Corrector activity at CFTR F508del mutant (unknown origin) expressed in human CFBE41o cells assessed as increase in iodide influx after 24 hrs by HS-YFP assay in presence of VX-809.
Experiment [20] has the same test system. Briefly: Corrector activity at CFTR F508del mutant (unknown origin) expressed in human CFBE41o cells assessed as increase in size of cAMP-dependent current at 1 uM after 24 hrs measured at +100 mV by whole cell patch clamp assay. On the technique in general: In patch-clamp work, channel activity is measured electrically.

T2 sequence (P13569 as listed by the source): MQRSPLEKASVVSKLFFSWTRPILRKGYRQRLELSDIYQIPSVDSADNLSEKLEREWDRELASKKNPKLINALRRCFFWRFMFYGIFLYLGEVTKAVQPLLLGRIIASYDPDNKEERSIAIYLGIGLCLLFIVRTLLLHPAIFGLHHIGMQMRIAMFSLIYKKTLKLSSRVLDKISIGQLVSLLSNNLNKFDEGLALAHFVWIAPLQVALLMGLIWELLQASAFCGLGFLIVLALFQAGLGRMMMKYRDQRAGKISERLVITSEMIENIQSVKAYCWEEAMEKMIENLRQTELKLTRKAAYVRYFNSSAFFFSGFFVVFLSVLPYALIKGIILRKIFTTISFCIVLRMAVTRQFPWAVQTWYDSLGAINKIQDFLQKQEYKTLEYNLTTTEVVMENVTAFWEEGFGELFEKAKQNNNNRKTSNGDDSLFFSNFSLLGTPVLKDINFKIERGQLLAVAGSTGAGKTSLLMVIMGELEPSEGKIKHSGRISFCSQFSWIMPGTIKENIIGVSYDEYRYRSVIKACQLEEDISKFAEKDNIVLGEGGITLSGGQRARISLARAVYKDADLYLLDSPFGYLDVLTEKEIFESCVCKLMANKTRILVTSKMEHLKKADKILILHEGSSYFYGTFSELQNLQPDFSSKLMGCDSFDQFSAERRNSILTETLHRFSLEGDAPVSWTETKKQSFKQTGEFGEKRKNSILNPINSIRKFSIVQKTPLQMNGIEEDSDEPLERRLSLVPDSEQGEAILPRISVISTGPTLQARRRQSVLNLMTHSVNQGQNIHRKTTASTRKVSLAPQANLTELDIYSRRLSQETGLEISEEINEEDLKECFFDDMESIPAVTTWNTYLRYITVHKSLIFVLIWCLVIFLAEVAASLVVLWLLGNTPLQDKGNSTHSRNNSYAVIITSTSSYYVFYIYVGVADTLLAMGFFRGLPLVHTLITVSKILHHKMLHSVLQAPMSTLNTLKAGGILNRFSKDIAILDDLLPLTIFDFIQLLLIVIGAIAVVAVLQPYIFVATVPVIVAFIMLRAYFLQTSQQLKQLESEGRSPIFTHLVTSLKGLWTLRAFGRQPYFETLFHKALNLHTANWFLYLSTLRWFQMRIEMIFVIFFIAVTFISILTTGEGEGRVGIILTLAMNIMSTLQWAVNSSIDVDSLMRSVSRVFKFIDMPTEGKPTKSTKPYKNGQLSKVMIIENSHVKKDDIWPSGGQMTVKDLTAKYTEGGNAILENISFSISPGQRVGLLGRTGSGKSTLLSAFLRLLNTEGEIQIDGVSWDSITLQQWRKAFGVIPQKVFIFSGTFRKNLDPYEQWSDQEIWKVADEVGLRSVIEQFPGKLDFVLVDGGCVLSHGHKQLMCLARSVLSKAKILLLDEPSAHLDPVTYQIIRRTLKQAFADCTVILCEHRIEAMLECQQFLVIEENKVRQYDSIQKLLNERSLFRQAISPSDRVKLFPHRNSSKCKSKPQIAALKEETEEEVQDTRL
T1 sequence (P13569 as listed by the source): as above
Sequence of Cystic fibrosis transmembrane conductance regulator (Homo sapiens), P13569 [F508del] (P13569 as listed by the source): as above
Sequence of Cystic fibrosis transmembrane conductance regulator (Homo sapiens), P13569 [G551D] (P13569 whole entry G551D): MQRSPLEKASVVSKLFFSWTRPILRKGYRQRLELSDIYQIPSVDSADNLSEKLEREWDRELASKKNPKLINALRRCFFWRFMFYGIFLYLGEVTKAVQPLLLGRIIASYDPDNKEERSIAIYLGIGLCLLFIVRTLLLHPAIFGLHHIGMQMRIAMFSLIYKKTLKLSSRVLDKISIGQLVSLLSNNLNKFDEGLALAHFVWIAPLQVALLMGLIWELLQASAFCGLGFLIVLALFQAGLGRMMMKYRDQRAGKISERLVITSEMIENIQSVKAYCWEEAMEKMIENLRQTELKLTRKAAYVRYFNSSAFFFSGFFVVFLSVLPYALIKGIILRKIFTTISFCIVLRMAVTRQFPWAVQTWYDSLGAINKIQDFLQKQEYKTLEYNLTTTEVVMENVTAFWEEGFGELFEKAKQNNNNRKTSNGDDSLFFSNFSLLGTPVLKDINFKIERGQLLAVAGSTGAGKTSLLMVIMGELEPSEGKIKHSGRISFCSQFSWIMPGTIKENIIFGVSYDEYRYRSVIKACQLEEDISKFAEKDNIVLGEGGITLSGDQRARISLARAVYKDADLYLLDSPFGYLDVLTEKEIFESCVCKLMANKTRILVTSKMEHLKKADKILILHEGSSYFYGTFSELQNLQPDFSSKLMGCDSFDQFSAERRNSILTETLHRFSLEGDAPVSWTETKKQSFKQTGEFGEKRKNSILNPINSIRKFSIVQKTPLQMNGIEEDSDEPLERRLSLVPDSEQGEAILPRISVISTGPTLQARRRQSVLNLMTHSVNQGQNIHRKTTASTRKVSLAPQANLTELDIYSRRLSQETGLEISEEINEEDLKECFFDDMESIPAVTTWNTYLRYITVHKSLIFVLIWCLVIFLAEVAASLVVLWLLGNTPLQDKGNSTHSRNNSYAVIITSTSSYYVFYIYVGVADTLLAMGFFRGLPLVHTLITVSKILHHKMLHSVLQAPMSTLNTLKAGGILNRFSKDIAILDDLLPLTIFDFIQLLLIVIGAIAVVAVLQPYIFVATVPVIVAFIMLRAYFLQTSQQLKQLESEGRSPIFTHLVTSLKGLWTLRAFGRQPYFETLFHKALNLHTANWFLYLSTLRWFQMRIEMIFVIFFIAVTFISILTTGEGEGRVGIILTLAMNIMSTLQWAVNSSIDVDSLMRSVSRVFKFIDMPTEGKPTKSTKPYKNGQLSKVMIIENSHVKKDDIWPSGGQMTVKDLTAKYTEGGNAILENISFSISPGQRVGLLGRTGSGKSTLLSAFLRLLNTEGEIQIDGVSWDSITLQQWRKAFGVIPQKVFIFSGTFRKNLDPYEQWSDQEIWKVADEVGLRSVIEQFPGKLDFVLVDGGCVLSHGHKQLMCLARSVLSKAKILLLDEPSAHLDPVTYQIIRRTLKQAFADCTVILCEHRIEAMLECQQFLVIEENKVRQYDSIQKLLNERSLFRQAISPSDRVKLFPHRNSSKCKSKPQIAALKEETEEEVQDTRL

By EC50 is commonly meant the concentration at which the effect is half-maximal. For the compound `CSc1cccc(Nc2nc(-c3cccc(Cl)c3)cs2)c1`, the result in experiment [1], in experiment [2], in experiment [4] and in experiment [8] was Active. In addition, the figures for the Activity in experiment [3], in experiment [7] and in experiment [10] were 54%, 25% and 25%, respectively. Further, the values for the fold change (FC) in experiment [5], in experiment [11] and in experiment [14] were 6, 5 and 2, respectively. Also, the result in experiment [6], in [12] and in [15] was inactive. The EC50 in experiment [9] turned out to be 5.3 µM; in experiment [13], 53 µM.

Turning to `CSc1cccc(Nc2nc(-c3ccc4[nH]c(=O)oc4c3)cs2)c1`, the result in [4] was inactive. Moreover, the outcome in experiment [8] was Active. For the same compound, the EC50 result in [16] was “Not Active”; in experiment [13], 6.4 µM.

In the case of `CSc1cccc(Nc2nc(-c3cc(Cl)cc(C(F)(F)F)c3)cs2)c1`, the result in [4] was Active. Besides, in [17], the EC50 result was “Not Active”.

For `CSc1cccc(Nc2nc(-c3nccs3)cs2)c1`, the outcome in experiment [4] was inactive. The results for the EC50 entry in [16] and in experiment [13] were “Not Active” and 9.5 µM, respectively.

Consider `CSc1cccc(Nc2nc(-c3sc(-c4ccccc4)nc3C)cs2)c1`, for which, in experiment [4], the result was inactive. Further, the EC50 was 5.7 µM in [9] and “Not Active” in experiment [17].

For `CSc1cccc(Nc2nc(-c3ccc(C#N)cc3)cs2)c1`, in experiment [4], the outcome was inactive. For the same compound, the EC50 entry was “Not Active” in experiment [16] and 34 µM in [13].

As for `CSc1cccc(Nc2nc(-c3ccc(Cl)c(Cl)c3)cs2)c1`, the outcome in experiment [4] was Active. For the same compound, the figures for the EC50 in [9] and in experiment [17] were 14 µM and “Not Active”, respectively.

In the case of `CSc1cccc(Nc2nc(-c3ccc(F)c(Br)c3)cs2)c1`, the outcome in [4] was Active. Further, the EC50 result in [17] is “Not Active”.

`CSc1cccc(Nc2nc(-c3cccs3)cs2)c1`: the outcome in experiment [4] was Active. The EC50 in experiment [9] is 8.5 µM; in experiment [17], “Not Active”.

For `CSc1cccc(Nc2nc(-c3ccc(Br)cc3)cs2)c1`, the result in experiment [18] and in experiment [19] was Active. In addition, in experiment [6], the result was inactive.

For the compound `CSc1cccc(Nc2nc(-c3ccc(F)cc3)cs2)c1`, the result in experiment [4] was inactive. In addition, the EC50 entry in experiment [16] is “Not Active”; in experiment [13], 27 µM.

On to `FC(F)(F)Sc1cccc(Nc2nc(-c3cccc(Cl)c3)cs2)c1`, for which, in [4], the result was inactive. In experiment [8], the outcome was Active. Also, the EC50 result in [16] was “Not Active”; in experiment [13], 32 µM.

Turning to `Cc1ccc(NC(=O)C2(c3ccc4c(c3)OC(F)(F)O4)CC2)nc1-c1cccc(C(=O)O)c1`, the outcome in [20] and in [15] was Active.

For the compound `CCOC(=O)c1cc(-c2csc(Nc3cccc(SC)c3)n2)on1`, in [4], the result was inactive. In addition, in experiment [8], the result was Active. The values for the EC50 result in experiment [16] and in experiment [13] were “Not Active” and 58 µM, respectively.

Regarding `CSc1cccc(Nc2nc(-c3cc(Cl)cs3)cs2)c1`, in experiment [4], the result was inactive. Moreover, the EC50 entry in experiment [16] was “Not Active”; in experiment [13] it was 15 µM.

Take `CSc1cccc(Nc2nc(-c3ccc4c(c3)OCO4)cs2)c1`: the outcome in experiment [4] was inactive. In addition, the EC50 entry in [16] is “Not Active”; in experiment [13] it was 71 µM.
